According to ChEMBL document CHEMBL5055685, “Discovery of the First Potent IDO1/IDO2 Dual Inhibitors: A Promising Strategy for Cancer Immunotherapy” (J Med Chem, 2021):
Calls of active or inactive are those of the source. The rule behind the calls is not given here.

Key:
[1] = AUC (0 to t) in Sprague-Dawley rat at 5 mg/kg, iv; type: ADME, organism-based; set-up: dose 5 mg/kg, route iv; conditions: in vivo
[2] = test system: CT26; experiment: Cytotoxicity against mouse CT26 cells assessed as reduction in cell viability by CCK8 assay; type: functional, cell-based
[3] = Cmax in Sprague-Dawley rat at 50 mg/kg, po; type: ADME, organism-based; set-up: dose 50 mg/kg, route po; conditions: in vivo
[4] = Half life in Sprague-Dawley rat at 50 mg/kg, po; type: ADME, organism-based; conditions: in vivo
[5] = Metabolic stability in monkey liver microsomes assessed as rate constant; type: ADME, Macaca mulatta, Microsome; conditions: rhesus monkey
[6] = Protein binding in Beagle dog plasma by equilibrium dialysis; type: ADME, cell-free, Canis lupus familiaris; conditions: read-out: PPB (converted)
[7] = molecular target: Voltage-gated inwardly rectifying potassium channel KCNH2 (Homo sapiens, UniProt Q12809); experiment: Inhibition of human ERG
[8] = test system: Mus musculus; experiment: Toxicity in BALB/c mouse implanted with mouse CT26 cells assessed as weight loss at 50 mg/kg, ip bid for 28 days; type: organism-based; conditions: in vivo, 672 h, time 28 day
[9] = test system: Mus musculus; experiment: In vivo inhibition of IDO1/IDO2 in BALB/c mouse xenografted with human HCT-116 cells assessed as increase in tryptophan level in serum by […]; type: functional, organism-based
[10] = test system: HCT-116; experiment: Antitumor immunity in BALB/c mouse xenografted with human HCT-116 cells assessed as live Treg cells in spleen by propidium iodide staining based flow cytometry analysis (reference value: 70.9 %); type: functional
[11] = molecular target: Indoleamine 2,3-dioxygenase 1 (Mus musculus) (UniProt P28776); experiment: In vivo inhibition of IDO1 in BALB/c mouse xenografted with human HCT-116 cells assessed as suppression of IDO1 expression in tumor by immunohistochemical assay; type: functional, organism-based
[12] = molecular target: Serine/threonine-protein kinase A-Raf (Homo sapiens) (UniProt P10398); experiment: Inhibition of ARAF (unknown origin) at 1 uM
[13] = molecular target: CDK2/Cyclin A2 (Homo sapiens) (UniProt P24941+P20248); experiment: Inhibition of CDK2/cyclin-A (unknown origin) at 1 uM; type: protein-complex assay
[14] = molecular target: Cyclin-dependent kinase 5/CDK5 activator 1 (Homo sapiens) (UniProt Q00535+Q15078); experiment: Inhibition of CDK5/p25 (unknown origin) at 1 uM; type: protein-complex assay
[15] = molecular target: CDK6/cyclin D3 (Homo sapiens) (UniProt P30281+Q00534); experiment: Inhibition of CDK6/cyclin-D3 (unknown origin) at 1 uM; type: protein-complex assay
[16] = molecular target: CDK9/cyclin T1 (Homo sapiens) (UniProt O60563+P50750); experiment: Inhibition of CDK9/cyclin-T1 (unknown origin) at 1 uM; type: protein-complex assay
[17] = molecular target: Casein kinase I isoform alpha (Homo sapiens) (UniProt P48729); experiment: Inhibition of CK1a1 (unknown origin) at 1 uM
[18] = molecular target: Casein kinase II subunit alpha (Homo sapiens) (UniProt P68400); experiment: Inhibition of CK2A (unknown origin) at 1 uM
[19] = molecular target: Serine/threonine-protein kinase 17A (Homo sapiens) (UniProt Q9UEE5); experiment: Inhibition of DRAK1 (unknown origin) at 1 uM
[20] = molecular target: Dual specificity tyrosine-phosphorylation-regulated kinase 2 (Homo sapiens) (UniProt Q92630); experiment: Inhibition of DYRK2 (unknown origin) at 1 uM
[21] = molecular target: Ephrin type-B receptor 4 (Homo sapiens) (UniProt P54760); experiment: Inhibition of EPHB4 (unknown origin) at 1 uM
[22] = molecular target: Focal adhesion kinase 1 (Homo sapiens) (UniProt Q05397); experiment: Inhibition of FAK (unknown origin) at 1 uM
[23] = molecular target: Mitogen-activated protein kinase kinase kinase kinase 3 (Homo sapiens) (UniProt Q8IVH8); experiment: Inhibition of GLK (unknown origin) at 1 uM
[24] = molecular target: Serine/threonine-protein kinase LATS1 (Homo sapiens) (UniProt O95835); experiment: Inhibition of LATS1 (unknown origin) at 1 uM
[25] = molecular target: Leucine-rich repeat serine/threonine-protein kinase 2 (Homo sapiens) (UniProt Q5S007); experiment: Inhibition of LRRK2 (unknown origin) at 1 uM
[26] = molecular target: Mitogen-activated protein kinase kinase kinase 3 (Homo sapiens) (UniProt Q99759); experiment: Inhibition of MEKK3 (unknown origin) at 1 uM
[27] = molecular target: Mitogen-activated protein kinase kinase kinase 21 (Homo sapiens) (UniProt Q5TCX8); experiment: Inhibition of MLK4 (unknown origin)at 1 uM
[28] = molecular target: Serine/threonine-protein kinase 26 (Homo sapiens) (UniProt Q9P289); experiment: Inhibition of MST4 (unknown origin) at 1 uM
[29] = molecular target: Myosin light chain kinase family member 4 (Homo sapiens) (UniProt Q86YV6); experiment: Inhibition of MYLK4 (unknown origin) at 1 uM
[30] = molecular target: Serine/threonine-protein kinase Nek8 (Homo sapiens) (UniProt Q86SG6); experiment: Inhibition of NEK8 (unknown origin) at 1 uM
[31] = molecular target: Mitogen-activated protein kinase 11 (Homo sapiens) (UniProt Q15759); experiment: Inhibition of p38beta (unknown origin) at 1 uM
[32] = molecular target: PAS domain-containing serine/threonine-protein kinase (Homo sapiens) (UniProt Q96RG2); experiment: Inhibition of PASK (unknown origin) at 1 uM
[33] = molecular target: Serine/threonine-protein kinase pim-2 (Homo sapiens) (UniProt Q9P1W9); experiment: Inhibition of PIM2 (unknown origin) at 1 uM
[34] = molecular target: Serine/threonine-protein kinase D3 (Homo sapiens) (UniProt O94806); experiment: Inhibition of PKCnu (unknown origin) at 1 uM
[35] = molecular target: RAF proto-oncogene serine/threonine-protein kinase (Homo sapiens) (UniProt P04049); experiment: Inhibition of RAF1 (unknown origin) at 1 uM
[36] = molecular target: Proto-oncogene tyrosine-protein kinase receptor Ret (Homo sapiens) (UniProt P07949); experiment: Inhibition of RET (unknown origin) at 1 uM
[37] = molecular target: Rho-associated protein kinase 1 (Homo sapiens) (UniProt Q13464); experiment: Inhibition of ROCK1 (unknown origin) at 1 uM
[38] = molecular target: Ribosomal protein S6 kinase alpha-6 (Homo sapiens) (UniProt Q9UK32); experiment: Inhibition of RSK4 (unknown origin) at 1 uM
[39] = molecular target: SRSF protein kinase 2 (Homo sapiens) (UniProt P78362); experiment: Inhibition of SRPK2 (unknown origin) at 1 uM
[40] = molecular target: STE20/SPS1-related proline-alanine-rich protein kinase (Homo sapiens) (UniProt Q9UEW8); experiment: Inhibition of STK39 (unknown origin) at 1 uM
[41] = molecular target: Serine/threonine-protein kinase tousled-like 1 (Homo sapiens) (UniProt Q9UKI8); experiment: Inhibition of TLK1 (unknown origin) at 1 uM
[42] = molecular target: BDNF/NT-3 growth factors receptor (Homo sapiens) (UniProt Q16620); experiment: Inhibition of TRKB (unknown origin) at 1 uM
[43] = molecular target: NT-3 growth factor receptor (Homo sapiens) (UniProt Q16288); experiment: Inhibition of TRKC (unknown origin) at 1 uM
[44] = molecular target: Wee1-like protein kinase (Homo sapiens) (UniProt P30291); experiment: Inhibition of WEE1 (unknown origin) at 1 uM

Chain of Serine/threonine-protein kinase A-Raf (Homo sapiens) (P10398 whole entry): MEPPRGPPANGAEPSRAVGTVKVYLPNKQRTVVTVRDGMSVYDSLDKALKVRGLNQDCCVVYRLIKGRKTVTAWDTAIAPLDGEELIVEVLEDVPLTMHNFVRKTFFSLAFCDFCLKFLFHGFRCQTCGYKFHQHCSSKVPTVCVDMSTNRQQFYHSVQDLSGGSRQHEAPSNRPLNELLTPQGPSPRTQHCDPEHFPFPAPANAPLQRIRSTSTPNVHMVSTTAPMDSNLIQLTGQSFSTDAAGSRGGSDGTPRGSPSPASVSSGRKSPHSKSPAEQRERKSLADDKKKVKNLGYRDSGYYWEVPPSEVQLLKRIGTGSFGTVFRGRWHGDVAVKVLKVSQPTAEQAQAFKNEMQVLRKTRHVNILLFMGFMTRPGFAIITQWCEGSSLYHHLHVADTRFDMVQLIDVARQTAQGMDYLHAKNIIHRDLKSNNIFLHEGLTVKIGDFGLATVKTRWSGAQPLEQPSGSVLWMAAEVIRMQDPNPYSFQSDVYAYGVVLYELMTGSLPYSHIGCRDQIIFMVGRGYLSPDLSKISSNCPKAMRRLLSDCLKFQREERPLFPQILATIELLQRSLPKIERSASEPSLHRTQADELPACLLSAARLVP
Chain of SRSF protein kinase 2 (Homo sapiens) (P78362 whole entry, looked up): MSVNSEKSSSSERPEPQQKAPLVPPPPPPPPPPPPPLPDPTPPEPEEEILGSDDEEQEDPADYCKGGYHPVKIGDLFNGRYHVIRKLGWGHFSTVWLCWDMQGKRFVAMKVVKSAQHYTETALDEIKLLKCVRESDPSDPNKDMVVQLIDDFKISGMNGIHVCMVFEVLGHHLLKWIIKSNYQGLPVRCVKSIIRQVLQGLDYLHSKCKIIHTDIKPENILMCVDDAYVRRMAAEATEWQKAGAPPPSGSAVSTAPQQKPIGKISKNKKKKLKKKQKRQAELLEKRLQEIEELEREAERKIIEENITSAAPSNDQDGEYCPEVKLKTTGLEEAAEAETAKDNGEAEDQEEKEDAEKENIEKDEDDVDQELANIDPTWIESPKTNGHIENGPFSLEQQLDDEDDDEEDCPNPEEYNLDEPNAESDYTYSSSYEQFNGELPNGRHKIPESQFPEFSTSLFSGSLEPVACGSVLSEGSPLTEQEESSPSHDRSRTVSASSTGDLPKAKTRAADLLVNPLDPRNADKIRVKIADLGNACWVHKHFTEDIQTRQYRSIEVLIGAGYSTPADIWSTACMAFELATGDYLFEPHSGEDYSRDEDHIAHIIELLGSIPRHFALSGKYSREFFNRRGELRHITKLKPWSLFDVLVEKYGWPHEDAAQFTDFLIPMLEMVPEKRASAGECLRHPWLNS
Chain of RAF proto-oncogene serine/threonine-protein kinase (Homo sapiens) (P04049 whole entry): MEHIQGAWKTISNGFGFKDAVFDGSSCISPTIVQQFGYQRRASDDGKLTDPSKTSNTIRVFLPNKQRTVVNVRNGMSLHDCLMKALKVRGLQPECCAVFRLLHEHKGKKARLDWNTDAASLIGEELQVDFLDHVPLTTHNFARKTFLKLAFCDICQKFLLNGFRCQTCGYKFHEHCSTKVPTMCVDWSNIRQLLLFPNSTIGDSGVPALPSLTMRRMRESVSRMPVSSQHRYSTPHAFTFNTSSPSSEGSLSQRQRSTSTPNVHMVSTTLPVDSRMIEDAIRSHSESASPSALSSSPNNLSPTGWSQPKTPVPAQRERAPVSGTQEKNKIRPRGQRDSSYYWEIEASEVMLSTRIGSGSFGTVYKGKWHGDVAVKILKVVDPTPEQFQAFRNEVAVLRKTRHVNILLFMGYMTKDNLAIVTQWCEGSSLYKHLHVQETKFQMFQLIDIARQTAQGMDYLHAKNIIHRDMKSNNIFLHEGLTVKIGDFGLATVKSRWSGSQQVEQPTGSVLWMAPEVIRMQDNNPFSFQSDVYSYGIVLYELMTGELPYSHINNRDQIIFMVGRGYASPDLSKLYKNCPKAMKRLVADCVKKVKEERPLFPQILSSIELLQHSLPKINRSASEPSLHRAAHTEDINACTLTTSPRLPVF
Chain of Mitogen-activated protein kinase kinase kinase 3 (Homo sapiens) (Q99759 whole entry): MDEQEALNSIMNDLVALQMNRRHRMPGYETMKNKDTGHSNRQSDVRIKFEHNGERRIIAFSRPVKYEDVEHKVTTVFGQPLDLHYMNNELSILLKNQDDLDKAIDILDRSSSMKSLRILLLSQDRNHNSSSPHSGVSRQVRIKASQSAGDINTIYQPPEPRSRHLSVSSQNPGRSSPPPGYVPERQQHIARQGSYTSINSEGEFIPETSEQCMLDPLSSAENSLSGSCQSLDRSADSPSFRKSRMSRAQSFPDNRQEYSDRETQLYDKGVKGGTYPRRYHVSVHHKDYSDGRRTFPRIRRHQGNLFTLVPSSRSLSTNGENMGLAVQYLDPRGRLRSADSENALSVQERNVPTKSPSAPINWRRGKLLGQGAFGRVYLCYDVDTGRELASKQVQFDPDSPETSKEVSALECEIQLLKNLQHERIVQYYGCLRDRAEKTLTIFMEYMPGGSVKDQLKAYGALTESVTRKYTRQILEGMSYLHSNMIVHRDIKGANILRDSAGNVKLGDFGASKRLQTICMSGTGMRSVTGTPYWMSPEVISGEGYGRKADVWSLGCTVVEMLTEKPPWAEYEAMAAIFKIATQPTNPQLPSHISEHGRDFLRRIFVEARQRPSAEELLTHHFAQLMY
Chain of Leucine-rich repeat serine/threonine-protein kinase 2 (Homo sapiens) (Q5S007 whole entry): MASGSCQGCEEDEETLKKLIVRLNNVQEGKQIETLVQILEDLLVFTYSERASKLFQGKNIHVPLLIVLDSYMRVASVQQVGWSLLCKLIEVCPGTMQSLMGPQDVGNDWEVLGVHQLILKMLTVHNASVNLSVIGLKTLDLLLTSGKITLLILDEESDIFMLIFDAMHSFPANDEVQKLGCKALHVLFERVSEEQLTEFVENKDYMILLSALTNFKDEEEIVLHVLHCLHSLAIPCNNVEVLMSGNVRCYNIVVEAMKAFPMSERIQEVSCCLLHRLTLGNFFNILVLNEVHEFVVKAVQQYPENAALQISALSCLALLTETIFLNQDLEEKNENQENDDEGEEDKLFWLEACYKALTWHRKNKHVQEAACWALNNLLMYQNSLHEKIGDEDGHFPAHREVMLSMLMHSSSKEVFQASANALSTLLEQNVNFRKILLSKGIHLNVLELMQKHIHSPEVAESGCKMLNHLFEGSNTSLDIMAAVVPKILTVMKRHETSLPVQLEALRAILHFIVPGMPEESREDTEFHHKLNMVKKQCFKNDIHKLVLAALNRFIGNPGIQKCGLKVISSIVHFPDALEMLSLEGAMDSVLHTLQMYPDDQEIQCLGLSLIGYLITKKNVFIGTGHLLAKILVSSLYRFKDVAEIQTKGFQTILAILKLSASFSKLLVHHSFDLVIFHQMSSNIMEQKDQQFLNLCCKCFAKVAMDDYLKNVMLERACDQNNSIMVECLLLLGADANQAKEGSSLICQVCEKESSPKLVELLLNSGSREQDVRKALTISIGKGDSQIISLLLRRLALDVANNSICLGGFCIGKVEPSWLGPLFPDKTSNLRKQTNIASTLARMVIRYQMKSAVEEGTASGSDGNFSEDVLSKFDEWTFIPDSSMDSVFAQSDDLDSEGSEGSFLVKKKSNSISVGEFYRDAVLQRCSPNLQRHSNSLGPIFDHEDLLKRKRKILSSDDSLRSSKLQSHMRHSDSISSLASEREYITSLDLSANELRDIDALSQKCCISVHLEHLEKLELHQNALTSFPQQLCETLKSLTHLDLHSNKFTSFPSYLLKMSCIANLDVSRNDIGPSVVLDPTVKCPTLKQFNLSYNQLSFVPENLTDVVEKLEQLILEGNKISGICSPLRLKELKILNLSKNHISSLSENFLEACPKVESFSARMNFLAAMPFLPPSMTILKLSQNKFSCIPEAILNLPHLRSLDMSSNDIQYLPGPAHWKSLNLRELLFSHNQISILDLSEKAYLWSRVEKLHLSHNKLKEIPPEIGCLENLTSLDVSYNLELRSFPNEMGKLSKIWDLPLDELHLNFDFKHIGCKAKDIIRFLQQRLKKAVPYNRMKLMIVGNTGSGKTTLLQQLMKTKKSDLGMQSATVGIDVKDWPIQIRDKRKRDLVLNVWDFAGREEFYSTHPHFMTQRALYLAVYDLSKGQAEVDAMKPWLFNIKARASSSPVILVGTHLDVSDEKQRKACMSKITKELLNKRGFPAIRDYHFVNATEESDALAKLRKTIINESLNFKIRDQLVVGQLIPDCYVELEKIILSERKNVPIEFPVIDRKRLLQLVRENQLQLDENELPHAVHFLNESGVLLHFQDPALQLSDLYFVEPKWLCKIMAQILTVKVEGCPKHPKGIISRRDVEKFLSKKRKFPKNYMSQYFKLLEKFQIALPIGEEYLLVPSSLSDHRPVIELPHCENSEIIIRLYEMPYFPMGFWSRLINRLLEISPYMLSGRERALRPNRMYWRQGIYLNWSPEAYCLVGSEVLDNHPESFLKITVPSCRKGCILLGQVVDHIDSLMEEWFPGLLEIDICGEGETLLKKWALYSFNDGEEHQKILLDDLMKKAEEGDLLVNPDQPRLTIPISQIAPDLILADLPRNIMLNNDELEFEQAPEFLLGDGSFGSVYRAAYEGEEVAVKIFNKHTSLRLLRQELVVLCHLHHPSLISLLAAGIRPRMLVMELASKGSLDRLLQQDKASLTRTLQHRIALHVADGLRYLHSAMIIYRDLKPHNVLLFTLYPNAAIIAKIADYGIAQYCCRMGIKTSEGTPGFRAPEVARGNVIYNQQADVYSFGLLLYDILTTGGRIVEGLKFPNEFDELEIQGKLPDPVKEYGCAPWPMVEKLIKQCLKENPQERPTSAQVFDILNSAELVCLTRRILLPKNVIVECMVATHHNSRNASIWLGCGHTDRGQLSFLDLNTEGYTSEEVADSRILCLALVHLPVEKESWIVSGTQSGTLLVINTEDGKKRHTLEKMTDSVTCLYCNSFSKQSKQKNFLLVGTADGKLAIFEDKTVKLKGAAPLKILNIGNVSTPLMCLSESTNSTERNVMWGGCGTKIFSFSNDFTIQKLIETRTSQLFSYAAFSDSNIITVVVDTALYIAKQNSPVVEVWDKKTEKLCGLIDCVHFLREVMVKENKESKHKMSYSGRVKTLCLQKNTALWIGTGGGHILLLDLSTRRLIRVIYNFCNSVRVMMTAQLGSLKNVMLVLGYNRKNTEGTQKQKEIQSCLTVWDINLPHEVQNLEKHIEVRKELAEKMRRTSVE

Question: With OCCOCc1cn(CCNc2nonc2/C(=N/O)Nc2ccc(F)c(Br)c2)nn1 as the compound, how does the AUC(0-t) [1] read?
Answer: The AUC(0-t) was 3040 ng·h/mL.

Question: And the IC50 [2]?
Answer: The IC50 was 62 µM.

Question: And the Cmax [3]?
Answer: The Cmax was 1040 ng/mL.

Question: And the half-life [4]?
Answer: The half-life was 1.9 h.

Question: And the k el [5]?
Answer: Its k el is 0.0003 s⁻¹.

Question: And the fraction unbound [6]?
Answer: The fraction unbound was 0.0498.

Question: What about the IC50 [7] of the same compound?
Answer: The IC50 was greater than 30 µM.

Question: What about the Activity [8] of the same compound?
Answer: The Activity was “Non-Toxic”.

Question: What about the inhibition [9] of the same compound?
Answer: The inhibition was “Active”.

Question: And the Activity [10]?
Answer: Its Activity is 87.4%.

Question: And the inhibition [11]?
Answer: Its inhibition is “Active”.

Question: What about the inhibition [12] of the same compound?
Answer: The inhibition was “inactive”.

Question: What about the inhibition [13] of the same compound?
Answer: Its inhibition is “inactive”.

Question: And the inhibition [14]?
Answer: Its inhibition is “inactive”.

Question: What about the inhibition [15] of the same compound?
Answer: The inhibition was “inactive”.

Question: And the inhibition [16]?
Answer: The inhibition was “inactive”.

Question: What about the inhibition [17] of the same compound?
Answer: Its inhibition is “inactive”.

Question: And the inhibition [18]?
Answer: The inhibition was “inactive”.

Question: What about the inhibition [19] of the same compound?
Answer: Its inhibition is “inactive”.

Question: And the inhibition [20]?
Answer: Its inhibition is “inactive”.

Question: What about the inhibition [21] of the same compound?
Answer: The inhibition was “inactive”.

Question: What about the inhibition [22] of the same compound?
Answer: The inhibition was “inactive”.

Question: And the inhibition [23]?
Answer: The inhibition was “inactive”.

Question: What about the inhibition [24] of the same compound?
Answer: The inhibition was “inactive”.

Question: What about the inhibition [25] of the same compound?
Answer: Its inhibition is “inactive”.

Question: What about the inhibition [26] of the same compound?
Answer: The inhibition was “inactive”.

Question: And the inhibition [27]?
Answer: Its inhibition is “inactive”.

Question: And the inhibition [28]?
Answer: The inhibition was “inactive”.

Question: What about the inhibition [29] of the same compound?
Answer: Its inhibition is “inactive”.

Question: What about the inhibition [30] of the same compound?
Answer: The inhibition was “inactive”.

Question: What about the inhibition [31] of the same compound?
Answer: The inhibition was “inactive”.

Question: And the inhibition [32]?
Answer: The inhibition was “inactive”.

Question: And the inhibition [33]?
Answer: Its inhibition is “inactive”.

Question: And the inhibition [34]?
Answer: The inhibition was “inactive”.

Question: What about the inhibition [35] of the same compound?
Answer: Its inhibition is “inactive”.

Question: What about the inhibition [36] of the same compound?
Answer: Its inhibition is “inactive”.

Question: What about the inhibition [37] of the same compound?
Answer: Its inhibition is “inactive”.

Question: What about the inhibition [38] of the same compound?
Answer: Its inhibition is “inactive”.

Question: And the inhibition [39]?
Answer: Its inhibition is “inactive”.

Question: What about the inhibition [40] of the same compound?
Answer: The inhibition was “inactive”.

Question: And the inhibition [41]?
Answer: Its inhibition is “inactive”.

Question: What about the inhibition [42] of the same compound?
Answer: The inhibition was “inactive”.

Question: And the inhibition [43]?
Answer: Its inhibition is “inactive”.

Question: What about the inhibition [44] of the same compound?
Answer: The inhibition was “inactive”.
